Experiments:
Acute toxicity = assay type: in vivo
L1210 leukemia = assay: Oral anticancer activity (survival time of L1210 leukemia-implanted BDF1 mice); assay type: in vivo, BDF1 mice; L1210 cells from DBA/2 mice; conditions: for Increase ratio in the survival time (T/C, %): Dose 150 mg/kg, daily for consecutive five days, L1210 implanted intraperitoneally
Protocol: The oral anticancer activity of the hexa-coordinate platinum(IV) complexes of the present invention was evaluated as follows. A group of eight 6-week old BDF1 mice was employed to test for each compound. 1×10^5 cells of L1210 leukemia in ascitic fluid from DBA/2 mice were implanted intraperitoneally in each mouse. The test solutions containing platinum(IV) complexes at different concentrations were orally administered daily for consecutive five days. The survival time of each group of the mice was recorded. The percent increase in the survival time as compared to the control group, T/C (%), was calculated as an indicator of the anticancer activity. The results are summarized in Table I. Drugs that have more than 125% of the T/C (%) values can be considered as efficient anticancer drugs. […] It is expected that the complex in Example 1 could be practically applicable since the acute toxicity was also low (LD50 =300 mg/kg)

Compound	acute toxicity / toxicity (in words) (Acute toxicity; in vivo)	acute toxicity LD50 (Acute toxicity; species and route not given) [mg/kg]	anticancer activity (in words) (L1210 leukemia)	Increase ratio in the survival time (T/C, %) (L1210 leukemia) [%]
CCC(=O)[O][Pt]([O]C(=O)CC)([O]C(=O)CC)[O]C(=O)CC.NC1CCCCC1N [Example 1]	low	300	excellent anticancer activity	160.9
CCCC(=O)[O][Pt]1([O]C(=O)CCC)([O]C(=O)CCC)([O]C(=O)CCC)[NH]C2CCCCC2[NH]1 (stereo not drawn) [Example 2]				139.1
CCCC(=O)[O][Pt]1([O]C(=O)CCC)([O]C(=O)CCC)([O]C(=O)CCC)[NH]CC[NH]1 [Example 4, (NH2 CH2 CH2 NH2)Pt(OOCC3 H7)4]				115.4
[OH][Pt]1([OH])([OH])([OH])[NH]C2CCCCC2[NH]1 (stereo not drawn) [compound 1, (DACH)Pt(OH)4, reference compound]				108.8
(DACH)PtCl2 (OAc)4 [compound 2, reference compound]				103.1
[NH2 CH2 C(CH3)2 CH2 NH2 ]Pt(OOCC2 H5)4 [Example 6]				130.8

— patent US5998648A, “Anticancer (IV) complexes for oral administration and a method of making the same” (Korea Institute of Science and Technology, priority 1997, dated 1999)
